Reference: patent US20220386582A1, “METHOD AND DEVICE TO TRAP ACARIDS” (DOMOBIOS, priority 2015, published 2022)

Columns and labels:
Format in all cases: in vivo
Acarus siro [1] = test: Binary choice test in Petri dish, felt with lavandulol composition versus felt with water
Protocol: (§1) A group of mites (20<n<40) was placed in the center of a Petri dish (diameter 5.5 cm) around which two felt pieces (density of 70 mg/cm^2, thickness of 2 mm) were placed equidistant. The first felt piece was impregnated with water and the other felt piece was impregnated with the lavandulol composition at different dilutions. The diluted lavandulol solutions were prepared from a 90-95% pure lavandulol stock solution (Phytolab, catalog No. 80887). Mites moved spontaneously towards one of the two felt pieces. The number of mites migrating to one side or to the other side was counted and this distribution was compared to a situation where mites were placed in a Petri dish containing two felt pieces impregnated with water. Observations, counting, and identification of mites' species were performed under binocular microscope (magnification 10×). The set-up is illuminated with a cold lamp (KL 1500 LCD, Schott ●), the lighting is symmetric and the light intensity was 50Klux. The experimental conditions were controlled in the room (T° C.: 19-22° C. and RH 40%).

Tyrophagus putrescentiae [2] = test: as above
Protocol: as §1

Acarus siro [3] = test: Toxicity, direct contact
Protocol: (§2) FIGS. 11A-11D are sets of graphs showing the percentage of dead mites after direct contact with different doses of lavandulol (at a dilution of 10^−6, 0.184 of pure solution or 0.5 μL of pure solution) or water (Ctrl) for different time of exposure. Four species of mites were tested: Dermatophagoides pteronyssinus (FIG. 11A), Dermatophagoides farinae (FIG. 11B), Tyrophagus putrescentiae (FIG. 11C) and Acarus siro (FIG. 11D).
(§3) The species studied were two species of dust common in mattresses in Eurasia (Dermatophagoides pteronyssinus and Dermatophagoides farinae), and two species of stored food mites common in Eurasia (Tyrophagus putrescentiae and Acarus siro). These four species were reared under defined conditions (20° C. and 75% relative humidity). The house dust mites were fed with human flakes (skin and whiskers obtained by cleaning electric shavers) and stored food mites were fed with fish food. The experiments were performed at 20° C. and 40% relative humidity.
(§4) For this experiment, for each of the four species, a group of mites (10<n<25) was placed in a Petri dish in direct contact with the substance to test. To directly contact mites with the substance, a piece of paper filter (5×1 cm) impregnated with lavandulol at various concentration (10 μL of a 10^−6 dilution, 0.18 μL of pure solution and 0.5 μL of pure solution, corresponding respectively to 8.8 ng, 0.15 mg or 0.417 mg of lavandulol), or with a neutral solution, was placed in the Petri dish. The dish was then closed with Parafilm●.
(§5) After a determined time (15 min, 1 hour or 24 hours), the number of dead mites were counted as previously described.

Dermatophagoides farinae = test: Toxicity, direct contact
Protocol: as §2, §3, §4, §5

[4] = system: Dermatophagoides pteronyssinus; test: Toxicity, direct contact
Protocol: as §2, §3, §4, §5

Tyrophagus putrescentiae [5] = test: Toxicity, direct contact
Protocol: as §2, §3, §4, §5

[6] = at least at a dilution of 10^−3, even more at least at 10^−6
[7] = 10^−6 dilution (10 μL), 15 min, 1 hour or 24 hours
[8] = pure solutions (0.18 μL and 0.5 μL), after 1 hour
[9] = pure solutions (0.18 μL and 0.5 μL), after 24 hours

C=C(C)C(CO)CC=C(C)C (centres unmarked) [Lavandulol, 5-Methyl-2-prop-1-en-2-ylhex-4-en-1-ol]
Number of mites on the felt piece impregnated with the lavandulol composition (Acarus siro [1]; Dilution 10^−3): 44% | Number of mites on the felt piece impregnated with the lavandulol composition (Acarus siro [1]; Dilution 10^−6): 48% | Number of mites on the felt piece impregnated with the lavandulol composition (Acarus siro [1]; Dilution 10^−9): 40% | Number of mites on the felt piece impregnated with the lavandulol composition (Acarus siro [1]; Dilution 10^−12): 55% | Number of mites on the felt piece impregnated with the lavandulol composition (Acarus siro [1]; Dilution 10^−14): 54% | Number of mites on the felt piece impregnated with the lavandulol composition (Acarus siro [1]; Dilution 10^−16): 50% | Number of mites on the felt piece impregnated with the lavandulol composition (Acarus siro [1]; Dilution Undiluted): 1.1% | attraction of mites (in words) (Acarus siro [1]; [6]): efficiently attracts mites | attraction of mites (in words) (Acarus siro [1]; undiluted solution): fails to attract mites | Number of mites on the felt piece impregnated with the lavandulol composition (Tyrophagus putrescentiae [2]; Dilution 10^−3): 34% | Number of mites on the felt piece impregnated with the lavandulol composition (Tyrophagus putrescentiae [2]; Dilution 10^−6): 44% | Number of mites on the felt piece impregnated with the lavandulol composition (Tyrophagus putrescentiae [2]; Dilution 10^−7): 48% | Number of mites on the felt piece impregnated with the lavandulol composition (Tyrophagus putrescentiae [2]; Dilution 10^−9): 38% | Number of mites on the felt piece impregnated with the lavandulol composition (Tyrophagus putrescentiae [2]; Dilution 10^−12): 47% | Number of mites on the felt piece impregnated with the lavandulol composition (Tyrophagus putrescentiae [2]; Dilution 10^−13): 49% | Number of mites on the felt piece impregnated with the lavandulol composition (Tyrophagus putrescentiae [2]; Dilution 10^−14): 69% | Number of mites on the felt piece impregnated with the lavandulol composition (Tyrophagus putrescentiae [2]; Dilution 10^−15): 63% | Number of mites on the felt piece impregnated with the lavandulol composition (Tyrophagus putrescentiae [2]; Dilution 10^−16): 60% | Number of mites on the felt piece impregnated with the lavandulol composition (Tyrophagus putrescentiae [2]; Dilution Undiluted): 2% | attraction of mites (in words) (Tyrophagus putrescentiae [2]; [6]): efficiently attracts mites | attraction of mites (in words) (Tyrophagus putrescentiae [2]; undiluted solution): fails to attract mites | death of mites by contact (Acarus siro [3]; [7]): doesn't cause death of mites | mites died by contact (Acarus siro [3]; [8]): 97% | death of mites by contact (Dermatophagoides farinae; [7]): doesn't cause death of mites | death of mites by contact (Dermatophagoides farinae; [8]): lead to mites' death | death of mites by contact (Dermatophagoides farinae; [9]): all mites being died | death of mites by contact [4, 7]: doesn't cause death of mites | death of mites by contact [4, 8]: lead to mites' death | death of mites by contact [4, 9]: all mites being died | death of mites by contact (Tyrophagus putrescentiae [5]; [7]): doesn't cause death of mites | death of mites by contact (Tyrophagus putrescentiae [5]; [8]): lead to mites' death | death of mites by contact (Tyrophagus putrescentiae [5]; [9]): all mites being died
